Measurements published in US20080318943A1, “Compounds and Uses Thereof - 848” (ASTRAZENECA AB, priority 2007, published 2008).

Assays:
[1] = molecular target: T1, GABAA2 receptors (α2, β3, γ2 receptor subunits transfected into Sf9 cells) (Homo sapiens, UniProt P18507+P47869); experiment: GABAA2 Binding Method ([3H]-Flunitrazepam displacement); details: [3H]-Flunitrazepam ~2 nM, α2β3γ2 Sf9 membranes, 1 hr at 4° C.
T1 construct: host or cells: Sf9 cells (membranes)
How it was run: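 Membranes from Sf9 cells expressing α2β3γ2 GABAA receptors incubated with ~2 nM (final) [3H]-flunitrazepam and test compound 1 h at 4 °C, then filtered on GF/B plates with cold-buffer washes. Flumazenil-defined controls; percent of control, IC50 and Ki calculated.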

GABAA receptor α1β2γ2 = molecular target: T2, GABAA receptor α1β2γ2 (Homo sapiens, UniProt P14867+P18507); experiment: Two-electrode voltage-clamp potentiation of GABA EC10 current in Xenopus oocytes, GABAA1; assay type: cell-based; details: percentage potentiation of GABA EC10 current divided by that of diazepam
T2 construct: expressed in transfected cells; host or cells: Xenopus laevis oocytes injected with cRNA
How it was run: (§1)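 Human GABAA receptors expressed in Xenopus oocytes by cRNA injection (α:β:γ molar ratio ~1:1:10 for α1β2γ2, 1:1:1 for α2β3γ2), recorded 2-10 days later by two-electrode voltage clamp at −60 mV in ND-96, pH 7.5. Modulator preapplied 30 s before GABA at per-oocyte EC10. Peak-current percent potentiation over GABA alone, normalised to diazepam.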

GABAA receptor α2β3γ2 = molecular target: T3, GABAA receptor α2β3γ2 (Homo sapiens, UniProt P18507+P47869); experiment: Two-electrode voltage-clamp potentiation of GABA EC10 current in Xenopus oocytes, GABAA2; assay type: cell-based; details: percentage potentiation of GABA EC10 current divided by that of diazepam
T3 construct: expressed in transfected cells; host or cells: Xenopus laevis oocytes injected with cRNA
How it was run: as §1

T3 sequence (P47869 29-451): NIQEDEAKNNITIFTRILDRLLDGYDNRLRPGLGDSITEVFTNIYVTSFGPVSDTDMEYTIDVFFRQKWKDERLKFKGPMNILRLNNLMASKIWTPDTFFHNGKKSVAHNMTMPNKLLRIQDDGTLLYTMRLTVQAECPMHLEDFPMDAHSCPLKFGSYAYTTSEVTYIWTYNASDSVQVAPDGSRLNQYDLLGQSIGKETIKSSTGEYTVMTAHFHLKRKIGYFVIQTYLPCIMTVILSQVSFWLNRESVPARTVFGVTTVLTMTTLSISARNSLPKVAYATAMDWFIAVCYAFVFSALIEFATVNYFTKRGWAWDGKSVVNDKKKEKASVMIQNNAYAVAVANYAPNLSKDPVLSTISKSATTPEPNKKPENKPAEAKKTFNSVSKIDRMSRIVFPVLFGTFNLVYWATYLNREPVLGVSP
T3 sequence (P28472 26-473 partner): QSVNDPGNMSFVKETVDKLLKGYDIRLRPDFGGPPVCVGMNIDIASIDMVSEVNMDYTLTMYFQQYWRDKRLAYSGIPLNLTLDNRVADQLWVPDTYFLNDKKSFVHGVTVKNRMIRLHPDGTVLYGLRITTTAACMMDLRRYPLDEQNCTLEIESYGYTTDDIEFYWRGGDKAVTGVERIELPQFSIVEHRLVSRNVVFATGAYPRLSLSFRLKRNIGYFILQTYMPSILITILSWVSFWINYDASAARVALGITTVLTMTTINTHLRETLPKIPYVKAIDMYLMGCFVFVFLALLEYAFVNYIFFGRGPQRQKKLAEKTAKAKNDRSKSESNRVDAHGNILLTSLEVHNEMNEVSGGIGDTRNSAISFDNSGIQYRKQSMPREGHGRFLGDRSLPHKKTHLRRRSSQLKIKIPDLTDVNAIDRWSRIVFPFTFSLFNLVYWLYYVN
T3 sequence (P18507 40-475): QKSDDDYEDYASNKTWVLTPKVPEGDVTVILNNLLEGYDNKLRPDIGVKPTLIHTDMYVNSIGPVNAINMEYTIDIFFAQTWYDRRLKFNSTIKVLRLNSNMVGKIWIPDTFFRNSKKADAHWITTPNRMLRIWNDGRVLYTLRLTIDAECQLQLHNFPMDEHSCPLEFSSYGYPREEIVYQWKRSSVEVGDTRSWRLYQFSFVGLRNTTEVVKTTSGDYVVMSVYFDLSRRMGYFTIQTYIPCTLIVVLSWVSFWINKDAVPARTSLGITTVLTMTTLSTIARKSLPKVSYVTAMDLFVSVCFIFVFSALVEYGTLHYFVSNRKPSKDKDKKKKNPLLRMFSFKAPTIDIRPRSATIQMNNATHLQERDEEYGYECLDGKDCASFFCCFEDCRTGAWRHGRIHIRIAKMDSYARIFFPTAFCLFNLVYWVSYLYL
T1 sequence (P47869 29-451): as the sequence (P47869 29-451) above
T1 sequence (P28472 26-473 partner): as the sequence (P28472 26-473 partner) above
T1 sequence (P18507 40-475): as the sequence (P18507 40-475) above
T2 sequence (P14867 28-456): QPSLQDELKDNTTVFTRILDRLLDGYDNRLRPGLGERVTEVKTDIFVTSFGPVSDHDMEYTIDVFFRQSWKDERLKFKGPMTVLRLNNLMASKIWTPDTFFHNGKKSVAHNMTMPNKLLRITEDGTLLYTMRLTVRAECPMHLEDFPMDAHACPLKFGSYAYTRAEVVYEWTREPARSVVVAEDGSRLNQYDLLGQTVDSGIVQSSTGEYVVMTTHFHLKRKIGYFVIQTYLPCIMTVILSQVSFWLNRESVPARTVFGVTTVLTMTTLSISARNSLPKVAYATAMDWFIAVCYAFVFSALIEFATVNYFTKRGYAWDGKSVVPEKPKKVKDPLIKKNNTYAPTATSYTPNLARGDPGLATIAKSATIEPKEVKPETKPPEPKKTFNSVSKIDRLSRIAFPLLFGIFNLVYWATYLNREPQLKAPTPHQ
T2 sequence (P47870 25-512 partner limits assumed): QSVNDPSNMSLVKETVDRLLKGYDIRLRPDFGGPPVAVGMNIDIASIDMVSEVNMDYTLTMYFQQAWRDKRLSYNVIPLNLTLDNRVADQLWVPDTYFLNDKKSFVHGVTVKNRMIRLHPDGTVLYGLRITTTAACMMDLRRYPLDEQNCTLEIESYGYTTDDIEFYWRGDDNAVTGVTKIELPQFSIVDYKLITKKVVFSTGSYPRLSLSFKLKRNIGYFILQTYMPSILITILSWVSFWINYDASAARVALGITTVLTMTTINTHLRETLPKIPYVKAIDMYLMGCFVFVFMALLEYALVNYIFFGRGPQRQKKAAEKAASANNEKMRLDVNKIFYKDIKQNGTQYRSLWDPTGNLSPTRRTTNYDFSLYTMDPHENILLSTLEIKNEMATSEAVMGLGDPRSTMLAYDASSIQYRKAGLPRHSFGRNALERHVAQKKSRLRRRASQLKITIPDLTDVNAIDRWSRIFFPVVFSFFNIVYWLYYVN
T2 sequence (P18507 40-475): as the sequence (P18507 40-475) above

Row | SMILES | Ki [1] [nM] | Relative Potentiation for GABAA1 (GABAA receptor α1β2γ2) | Relative Potentiation for GABAA2 (GABAA receptor α2β3γ2)
1 | Nc1c2c(nc3c(-c4ncccn4)cccc13)CN(C1CCC1)C2=O [9-Amino-2-cyclobutyl-5-pyrimidin-2-yl-2,3-dihydropyrrolo[3,4-b]quinolin-1-one] | 8.3 | 0.013 | 0.12
2 | COc1cccc(-c2c(F)ccc3c(N)c4c(nc23)CN(C2CCC2)C4=O)c1F [9-Amino-2-cyclobutyl-6-fluoro-5-(2-fluoro-3-methoxyphenyl)-2,3-dihydropyrrolo[3,4-b]quinolin-1-one] | 0.122 | 0.028 | 0.18
3 | COc1ccc(F)c(-c2c(F)ccc3c(N)c4c(nc23)CN(C2CCC2)C4=O)c1 [9-Amino-2-cyclobutyl-6-fluoro-5-(2-fluoro-5-methoxyphenyl)-2,3-dihydropyrrolo[3,4-b]quinolin-1-one] | 0.333 | 0.025 | 0.26
4 | Nc1c2c(nc3c(-c4cccnc4F)c(F)ccc13)CN(C1CCC1)C2=O [9-Amino-2-cyclobutyl-6-fluoro-5-(2-fluoropyridin-3-yl)-2,3-dihydropyrrolo[3,4-b]quinolin-1-one] | 0.246 | 0.018 | 0.19
5 | COc1ccccc1-c1c(F)ccc2c(N)c3c(nc12)CN(C1CCC1)C3=O [9-Amino-2-cyclobutyl-6-fluoro-5-(2-methoxyphenyl)-2,3-dihydropyrrolo[3,4-b]quinolin-1-one] | 1.56 | −0.047 | 0.2
6 | COc1ncccc1-c1c(F)ccc2c(N)c3c(nc12)CN(C1CCC1)C3=O [9-Amino-2-cyclobutyl-6-fluoro-5-(2-methoxypyridin-3-yl)-2,3-dihydropyrrolo[3,4-b]quinolin-1-one] | 0.847 | −0.01 | 0.28
7 | C=Cc1ccccc1-c1c(F)ccc2c(N)c3c(nc12)CN(C1CCC1)C3=O [9-Amino-2-cyclobutyl-6-fluoro-5-(2-vinylphenyl)-2,3-dihydropyrrolo[3,4-b]quinolin-1-one] | 1.68 | 0.11 | 0.11
8 | COc1cnccc1-c1c(F)ccc2c(N)c3c(nc12)CN(C1CCC1)C3=O [9-Amino-2-cyclobutyl-6-fluoro-5-(3-methoxypyridin-4-yl)-2,3-dihydropyrrolo[3,4-b]quinolin-1-one] | 0.185 | 0.02 | 0.27
9 | COc1cc(F)ccc1-c1c(F)ccc2c(N)c3c(nc12)CN(C1CCC1)C3=O [9-Amino-2-cyclobutyl-6-fluoro-5-(4-fluoro-2-methoxyphenyl)-2,3-dihydropyrrolo[3,4-b]quinolin-1-one] | 1.2 | 0.0067 | 0.15
10 | COc1ccc(F)cc1-c1c(F)ccc2c(N)c3c(nc12)CN(C1CCC1)C3=O [9-Amino-2-cyclobutyl-6-fluoro-5-(5-fluoro-2-methoxyphenyl)-2,3-dihydropyrrolo[3,4-b]quinolin-1-one] | 0.333 | 0.11 | 0.26
11 | COc1ccc(-c2c(F)ccc3c(N)c4c(nc23)CN(C2CCC2)C4=O)c(C)n1 [9-Amino-2-cyclobutyl-6-fluoro-5-(6-methoxy-2-methylpyridin-3-yl)-2,3-dihydropyrrolo[3,4-b]quinolin-1-one] | 1.14 | 0.042 | 0.19
12 | COc1cc(C)c(-c2c(F)ccc3c(N)c4c(nc23)CN(C2CCC2)C4=O)cn1 [9-Amino-2-cyclobutyl-6-fluoro-5-(6-methoxy-4-methylpyridin-3-yl)-2,3-dihydropyrrolo[3,4-b]quinolin-1-one] | 3.04 | 0.065 | 0.17
13 | COc1ccc(-c2c(F)ccc3c(N)c4c(nc23)CN(C2CCC2)C4=O)cn1 [9-Amino-2-cyclobutyl-6-fluoro-5-(6-methoxypyridin-3-yl)-2,3-dihydropyrrolo[3,4-b]quinolin-1-one] | 2.63 | −0.04 | 0.19
14 | Cc1ccc(-c2c(F)ccc3c(N)c4c(nc23)CN(C2CCC2)C4=O)cn1 [9-Amino-2-cyclobutyl-6-fluoro-5-(6-methylpyridin-3-yl)-2,3-dihydropyrrolo[3,4-b]quinolin-1-one] | 0.305 | 0 | 0.15
15 | Nc1c2c(nc3c(-c4cncnc4)c(F)ccc13)CN(C1CCC1)C2=O [9-Amino-2-cyclobutyl-6-fluoro-5-pyrimidin-5-yl-2,3-dihydropyrrolo[3,4-b]quinolin-1-one] | 1.46 | −0.053 | 0.09
16 | COc1cccc(F)c1-c1cccc2c(N)c3c(nc12)CN(C1CCCC1)C3=O [9-Amino-2-cyclopentyl-5-(2-fluoro-6-methoxyphenyl)-2,3-dihydropyrrolo[3,4-b]quinolin-1-one] | 3.01 | −0.01 | 0.3
17 | Nc1c2c(nc3c(-c4cccc(F)c4F)cccc13)CN(C1CC1)C2=O [9-Amino-2-cyclopropyl-5-(2,3-difluorophenyl)-2,3-dihydropyrrolo[3,4-b]quinolin-1-one] | 17 | 0.033 | 0.16
18 | Nc1c2c(nc3c(-c4ccc(F)cc4F)cccc13)CN(C1CC1)C2=O [9-Amino-2-cyclopropyl-5-(2,4-difluorophenyl)-2,3-dihydropyrrolo[3,4-b]quinolin-1-one] | 20 | 0.018 | 0.14
19 | COc1ccc(F)c(-c2c(F)ccc3c(N)c4c(nc23)CN(C2CC2)C4=O)c1F [9-Amino-2-cyclopropyl-5-(2,6-difluoro-3-methoxyphenyl)-6-fluoro-2,3-dihydropyrrolo[3,4-b]quinolin-1-one] | 4.12 | 0.062 | 0.17
20 | COc1cc(F)c(-c2cccc3c(N)c4c(nc23)CN(C2CC2)C4=O)c(F)c1 [9-Amino-2-cyclopropyl-5-(2,6-difluoro-4-methoxyphenyl)-2,3-dihydropyrrolo[3,4-b]quinolin-1-one] | 8.14 | −0.02 | 0.088
21 | Cc1ccc(-c2cccc3c(N)c4c(nc23)CN(C2CC2)C4=O)c(F)n1 [9-Amino-2-cyclopropyl-5-(2-fluoro-6-methylpyridin-3-yl)-2,3-dihydropyrrolo[3,4-b]quinolin-1-one] | 43.4 | 0 | 0.18
22 | Nc1c2c(nc3c(-c4ccccc4F)cccc13)CN(C1CC1)C2=O [9-Amino-2-cyclopropyl-5-(2-fluorophenyl)-2,3-dihydropyrrolo[3,4-b]quinolin-1-one] | 18.3 | −0.024 | 0.16
23 | Cc1ccc(-c2cccc3c(N)c4c(nc23)CN(C2CC2)C4=O)cn1 [9-Amino-2-cyclopropyl-5-(6-methyl-pyridin-3-yl)-2,3-dihydropyrrolo[3,4-b]quinolin-1-one] | 29.9 | −0.11 | 0.1
24 | COc1cccc(-c2c(F)ccc3c(N)c4c(nc23)CN(C2CC2)C4=O)c1F [9-Amino-2-cyclopropyl-6-fluoro-5-(2-fluoro-3-methoxyphenyl)-2,3-dihydropyrrolo[3,4-b]quinolin-1-one] | 2.68 | 0.032 | 0.13
25 | COc1ccc(F)c(-c2c(F)ccc3c(N)c4c(nc23)CN(C2CC2)C4=O)c1 [9-Amino-2-cyclopropyl-6-fluoro-5-(2-fluoro-5-methoxyphenyl)-2,3-dihydropyrrolo[3,4-b]quinolin-1-one] | 7.54 | 0.002 | 0.15
26 | COc1ccccc1-c1c(F)ccc2c(N)c3c(nc12)CN(C1CC1)C3=O [9-Amino-2-cyclopropyl-6-fluoro-5-(2-methoxyphenyl)-2,3-dihydropyrrolo[3,4-b]quinolin-1-one] | 3.72 | 0.02 | 0.2
